Source: the OligoGym collection
HELM strings list units from the 5' end as sugar, base in round brackets, then linkage (d deoxyribose, r ribose, m 2'-O-methyl, p phosphodiester). Strings are as the collection lists them, not checked against the first reports. ss, as = sense and antisense strand; [lna] = locked nucleic acid (LNA); [una] = unlocked nucleic acid; [fl2r] = 2'-fluoro

Conditions: siRNA
Further: test system not given here.

Substance	target mRNA knockdown [%]
RNA1{m(C)p.r(U)p.m(C)p.r(A)p.m(A)p.r(A)p.m(U)p.r(C)p.m(A)p.r(A)p.m(G)p.r(G)p.m(C)p.r(C)p.m(G)p.r(G)p.m(A)p.r(G)p.m(U)p.r(T)p.r(T)}|RNA2{r(A)p.r(C)p.r(U)p.r(C)p.r(C)p.m(G)p.m(G)p.r(C)p.r(C)p.r(U)p.r(U)p.m(G)p.r(A)p.r(U)p.r(U)p.r(U)p.m(G)p.r(A)p.m(G)p.r(T)p.r(T)}$$$RNA1{StrandType:ss}|RNA2{StrandType:as}$	36
RNA1{r(A)p.r(G)p.r(A)p.r(A)p.r(A)p.r(C)p.r(G)p.r(C)p.r(A)p.r(G)p.m(U)p.r(A)p.r(A)p.r(U)p.r(C)p.r(C)p.r(G)p.r(G)p.r(A)p.r(T)p.r(T)}|RNA2{r(U)p.r(C)p.r(C)p.r(G)p.r(G)p.r(A)p.r(U)p.r(U)p.r(A)p.r(C)p.m(U)p.r(G)p.r(C)p.r(G)p.r(U)p.r(U)p.r(U)p.r(C)p.r(U)p.r(T)p.r(T)}$$$RNA1{StrandType:ss}|RNA2{StrandType:as}$	82
RNA1{m(G)p.r(U)p.m(A)p.r(C)p.m(U)p.r(C)p.m(U)p.r(G)p.m(A)p.r(U)p.m(G)p.r(A)p.m(G)p.r(G)p.m(A)p.r(A)p.m(G)p.r(A)p.m(G)p.r(T)p.r(T)}|RNA2{r(C)p.r(U)p.r(C)p.r(U)p.r(U)p.r(C)p.r(C)p.r(U)p.r(C)p.r(A)p.r(U)p.r(C)p.r(A)p.r(G)p.r(A)p.r(G)p.r(U)p.r(A)p.r(C)p.r(T)p.r(T)}$$$RNA1{StrandType:ss}|RNA2{StrandType:as}$	18
RNA1{m(G)p.r(A)p.m(A)p.r(U)p.m(A)p.r(A)p.m(C)p.r(C)p.m(U)p.r(G)p.m(A)p.r(A)p.m(C)p.r(G)p.m(U)p.r(C)p.m(A)p.r(C)p.m(C)p.r(T)p.r(T)}|RNA2{r(G)p.r(G)p.r(U)p.r(G)p.r(A)p.r(C)p.r(G)p.r(U)p.r(U)p.r(C)p.r(A)p.r(G)p.r(G)p.r(U)p.r(U)p.r(A)p.r(U)p.r(U)p.r(C)p.r(T)p.r(T)}$$$RNA1{StrandType:ss}|RNA2{StrandType:as}$	17
RNA1{[fl2r](G)p.m(A)p.[fl2r](C)p.m(G)p.[fl2r](U)p.m(A)p.[fl2r](A)p.m(A)p.[fl2r](C)p.m(G)p.[fl2r](G)p.m(C)p.[fl2r](C)p.m(A)p.[fl2r](C)p.m(A)p.[fl2r](A)p.m(G)p.[fl2r](U)p.m(U)p.[fl2r](C)}|RNA2{r(A)p.r(C)p.r(U)p.r(U)p.r(G)p.r(U)p.r(G)p.r(G)p.r(C)p.r(C)p.r(G)p.r(U)p.r(U)p.r(U)p.r(A)p.r(C)p.r(G)p.r(U)p.r(C)p.r(G)p.r(C)}$$$RNA1{StrandType:ss}|RNA2{StrandType:as}$	87.3
RNA1{r(A)p.r(G)p.r(A)p.r(C)p.[fl2r](U)p.r(A)p.r(A)p.r(G)p.r(C)p.r(C)p.[fl2r](C)p.r(A)p.r(A)p.r(A)p.r(A)p.r(G)p.r(G)p.r(G)p.r(C)p.r(T)p.r(T)}|RNA2{r(G)p.r(C)p.r(C)p.r(C)p.r(U)p.r(U)p.r(U)p.[fl2r](U)p.r(G)p.r(G)p.r(G)p.r(C)p.r(U)p.[fl2r](U)p.r(A)p.r(G)p.r(U)p.r(C)p.r(U)p.r(T)p.r(T)}$$$RNA1{StrandType:ss}|RNA2{StrandType:as}$	45
RNA1{[fl2r](U)p.r(C)p.[fl2r](C)p.r(A)p.[fl2r](A)p.r(G)p.[fl2r](C)p.r(U)p.[fl2r](U)p.r(C)p.[fl2r](C)p.r(U)p.[fl2r](C)p.r(G)p.[fl2r](U)p.r(U)p.[fl2r](G)p.r(G)p.[fl2r](U)p.r(T)p.r(T)}|RNA2{r(A)p.r(C)p.r(C)p.r(A)p.r(A)p.r(C)p.r(G)p.r(A)p.r(G)p.r(G)p.r(A)p.r(A)p.r(G)p.r(C)p.[fl2r](U)p.[fl2r](U)p.r(G)p.r(G)p.r(A)p.r(T)p.r(T)}$$$RNA1{StrandType:ss}|RNA2{StrandType:as}$	51
RNA1{m(G)p.r(G)p.m(C)p.r(C)p.m(A)p.r(A)p.m(A)p.r(G)p.m(U)p.r(A)p.m(A)p.r(U)p.m(C)p.r(G)p.m(U)p.r(G)p.m(G)p.r(U)p.m(U)p.r(T)p.r(T)}|RNA2{r(A)p.r(A)p.r(C)p.r(C)p.r(A)p.r(C)p.r(G)p.r(A)p.r(U)p.r(U)p.r(A)p.r(C)p.r(U)p.r(U)p.r(U)p.r(G)p.r(G)p.r(C)p.r(C)p.r(T)p.r(T)}$$$RNA1{StrandType:ss}|RNA2{StrandType:as}$	37
RNA1{r(A)p.r(G)p.r(A)p.r(A)p.r(A)p.r(C)p.r(G)p.r(C)p.r(A)p.r(G)p.m(U)p.m(A)p.r(A)p.r(U)p.r(C)p.r(C)p.r(G)p.r(G)p.r(A)p.r(T)p.r(T)}|RNA2{r(U)p.r(C)p.r(C)p.r(G)p.r(G)p.r(A)p.r(U)p.m(U)p.r(A)p.r(C)p.r(U)p.r(G)p.r(C)p.r(G)p.r(U)p.r(U)p.r(U)p.r(C)p.r(U)p.r(T)p.r(T)}$$$RNA1{StrandType:ss}|RNA2{StrandType:as}$	85
RNA1{r(C)p.r(U)p.r(U)p.r(A)p.r(C)p.r(G)p.r(C)p.r(U)p.r(G)p.r(A)p.r(G)p.r(U)p.r(A)p.r(C)p.r(U)p.r(U)p.r(C)p.r(G)p.r(A)p.r(T)p.r(T)}|RNA2{r(U)p.r(C)p.r(G)p.r(A)p.r(A)p.r(G)p.r(U)p.r(A)p.r(C)p.r(U)p.r(C)p.r(A)p.r(G)p.r(C)p.r(G)p.r(U)p.r(A)p.[lna](A)p.r(G)p.r(T)p.r(T)}$$$RNA1{StrandType:ss}|RNA2{StrandType:as}$	92
RNA1{m(C)p.r(U)p.m(G)p.r(A)p.m(C)p.r(C)p.m(G)p.r(G)p.m(A)p.r(A)p.m(G)p.r(C)p.m(G)p.r(C)p.m(U)p.r(U)p.m(A)p.r(A)p.r(A)p.r(T)p.r(T)}|RNA2{r(U)p.r(U)p.r(U)p.r(A)p.r(A)p.r(G)p.r(C)p.r(G)p.m(C)p.r(U)p.r(U)p.r(C)p.m(C)p.r(G)p.r(G)p.r(U)p.m(C)p.r(A)p.r(G)p.r(T)p.r(T)}$$$RNA1{StrandType:ss}|RNA2{StrandType:as}$	27
RNA1{r(C)p.r(U)p.r(U)p.r(A)p.r(C)p.r(G)p.r(C)p.r(U)p.r(G)p.r(A)p.r(G)p.r(U)p.r(A)p.r(C)p.r(U)p.r(U)p.r(C)p.r(G)p.r(A)p.r(T)p.r(T)}|RNA2{r(T)p.r(C)p.r(G)p.r(A)p.r(A)p.r(G)p.r(U)p.r(A)p.r(C)p.r(U)p.r(C)p.r(A)p.r(G)p.r(C)p.r(G)p.r(U)p.r(A)p.r(A)p.[lna](G)p.[lna](T)p.[lna](T)}$$$RNA1{StrandType:ss}|RNA2{StrandType:as}$	92
RNA1{m(A)p.r(C)p.m(C)p.r(G)p.m(A)p.r(C)p.m(G)p.r(A)p.m(U)p.r(U)p.m(C)p.r(U)p.m(U)p.r(C)p.m(U)p.r(A)p.m(C)p.r(U)p.m(C)p.r(T)p.r(T)}|RNA2{r(G)p.r(A)p.r(G)p.r(U)p.r(A)p.r(G)p.r(A)p.r(A)p.r(G)p.r(A)p.r(A)p.r(U)p.r(C)p.r(G)p.r(U)p.r(C)p.r(G)p.r(G)p.r(U)p.r(T)p.r(T)}$$$RNA1{StrandType:ss}|RNA2{StrandType:as}$	42
RNA1{m(A)p.r(A)p.m(G)p.r(G)p.m(C)p.r(A)p.m(U)p.r(G)p.m(C)p.r(U)p.m(U)p.r(C)p.m(G)p.r(G)p.m(A)p.r(A)p.m(A)p.r(C)p.m(U)p.r(T)p.r(T)}|RNA2{r(A)p.m(G)p.r(U)p.r(U)p.r(U)p.r(C)p.r(C)p.r(G)p.r(A)p.r(A)p.m(G)p.r(C)p.r(A)p.r(U)p.m(G)p.r(C)p.r(C)p.r(U)p.r(U)p.r(T)p.r(T)}$$$RNA1{StrandType:ss}|RNA2{StrandType:as}$	60
RNA1{[lna](C)p.r(U)p.r(A)p.r(A)p.r(G)p.r(G)p.r(A)p.r(C)p.r(C)p.r(U)p.r(A)p.r(A)p.r(C)p.r(A)p.r(A)p.r(A)p.r(G)p.r(U)p.r(U)p.r(U)p.r(U)}|RNA2{r(A)p.r(A)p.r(C)p.r(U)p.r(U)p.r(U)p.r(G)p.r(U)p.r(U)p.r(A)p.r(G)p.r(G)p.r(U)p.r(C)p.r(C)p.r(U)p.r(U)p.r(A)p.r(G)p.r(U)p.r(U)}$$$RNA1{StrandType:ss}|RNA2{StrandType:as}$	64
RNA1{r(A)p.m(C)p.m(A)p.r(G)p.r(A)p.r(A)p.r(A)p.r(G)p.m(A)p.r(G)p.r(U)p.r(U)p.r(C)p.r(G)p.r(A)p.r(G)p.r(G)p.r(A)p.r(G)p.r(T)p.r(T)}|RNA2{r(C)p.r(U)p.r(C)p.r(C)p.r(U)p.r(C)p.r(G)p.r(A)p.r(A)p.r(C)p.r(U)p.r(C)p.r(U)p.r(U)p.r(U)p.r(C)p.m(U)p.r(G)p.r(U)p.r(T)p.r(T)}$$$RNA1{StrandType:ss}|RNA2{StrandType:as}$	61
RNA1{r(A)p.r(C)p.r(C)p.r(U)p.[fl2r](U)p.r(A)p.r(A)p.r(G)p.r(G)p.r(A)p.r(C)p.[fl2r](C)p.[fl2r](A)p.r(C)p.r(C)p.r(G)p.r(G)p.r(A)p.r(U)p.r(T)p.r(T)}|RNA2{r(A)p.r(U)p.r(C)p.r(C)p.r(G)p.r(G)p.[fl2r](U)p.[fl2r](G)p.r(G)p.r(U)p.r(C)p.r(C)p.r(U)p.[fl2r](U)p.[fl2r](A)p.r(A)p.r(G)p.r(G)p.r(U)p.r(T)p.r(T)}$$$RNA1{StrandType:ss}|RNA2{StrandType:as}$	70
RNA1{m(A)p.m(A)p.m(G)p.r(G)p.r(A)p.r(G)p.r(A)p.r(U)p.r(C)p.r(A)p.r(A)p.r(C)p.r(A)p.r(U)p.r(U)p.r(U)p.r(U)p.r(C)p.r(A)p.r(T)p.r(T)}|RNA2{m(U)p.m(G)p.m(A)p.r(A)p.r(A)p.r(A)p.r(U)p.r(G)p.r(U)p.r(U)p.r(G)p.r(A)p.r(U)p.r(C)p.r(U)p.r(C)p.r(C)p.r(U)p.r(U)p.r(T)p.r(T)}$$$RNA1{StrandType:ss}|RNA2{StrandType:as}$	60
RNA1{r(A)p.r(C)p.r(A)p.r(U)p.r(A)p.r(G)p.r(A)p.r(G)p.r(G)p.r(A)p.r(A)p.r(G)p.r(A)p.r(C)p.r(G)p.r(C)p.r(G)p.r(G)p.r(A)p.r(T)p.r(T)}|RNA2{r(U)p.r(C)p.r(C)p.r(G)p.r(C)p.r(G)p.r(U)p.r(C)p.r(U)p.r(U)p.r(C)p.r(C)p.r(U)p.r(C)p.[fl2r](U)p.r(A)p.r(U)p.r(G)p.r(U)p.r(T)p.r(T)}$$$RNA1{StrandType:ss}|RNA2{StrandType:as}$	89
RNA1{r(G)p.r(G)p.r(A)p.r(C)p.r(A)p.r(U)p.r(U)p.r(C)p.r(A)p.r(G)p.r(A)p.r(A)p.r(C)p.r(A)p.r(A)p.r(G)p.r(A)p.r(A)p.r(A)p.[una](U)p.[una](U)}|RNA2{r(U)p.r(U)p.[una](U)p.r(C)p.r(U)p.r(U)p.r(G)p.r(U)p.r(U)p.r(C)p.r(U)p.r(G)p.r(A)p.r(A)p.r(U)p.r(G)p.r(U)p.r(C)p.r(C)p.[una](U)p.[una](U)}$$$RNA1{StrandType:ss}|RNA2{StrandType:as}$	0
